Test results reported in patent US20240366589A1, “NHE3-BINDING COMPOUNDS AND METHODS FOR INHIBITING PHOSPHATE TRANSPORT” (Ardelyx, Inc., priority 2013, published 2024).

Tests used:
NHE-1 = NHE-1 (Homo sapiens, UniProt P19634); experiment: NHE isoform inhibition, Table 2 adapted from Masereel et al.: NHE-1, species not marked; type: biochemical; conditions: from Table 2 values
From the text: Shown below are examples of various NHE binding small molecules and their selectivity across the NHE-1, -2 and -3 isoforms. (See, e.g., B. Masereel et al., An Overview of Inhibitors of Na+/H+ Exchanger, European J. of Med. Chem., 38, pp. 547-554 (2003), the entire contents of which is incorporated by reference here for all relevant and consistent purposes). […] It is thus possible to engineer NHE3 binding selectivity into a chemical series optimized for potency against another antiporter isoform; that is, the inhibitor classes exemplified in the art may be suitably modified for activity and selectivity against NHE3 (or alternatively NHE-2 and/or NHE-8), as well as being optionally modified to be rendered substantially impermeable or substantially systemically non-bioavailable.

Rat NHE3 = target: T1, Rat NHE3 (Rattus norvegicus, UniProt P26433); experiment: Cell-based NHE3 activity under prompt conditions (OK cells, BCECF pH recovery), rat NHE3; conditions: Table E5; 001 free base, 002-005 dihydrochloride salt
T1 construct: expressed in transfected cells; host or cells: Opossum kidney (OK) cells (ATCC), electroporation
Summary of the method: (§1)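 Cells (OK line, electroporated with rat or human NHE3) are washed in NaCl-HEPES pH 7.4, then dye-loaded 30 min at room temperature with 5 μM BCECF-AM in NH4Cl buffer.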

Human NHE3 [1] = target: T2, Human NHE3 (Homo sapiens, UniProt P48764); experiment: Cell-based NHE3 activity under prompt conditions (OK cells, BCECF pH recovery), human NHE3; conditions: for pIC50 Prompt: Table E6, NHE3 species not stated
T2 construct: expressed in transfected cells; host or cells: Opossum kidney (OK) cells (ATCC), electroporation
T2 sequence (P48764 26-834): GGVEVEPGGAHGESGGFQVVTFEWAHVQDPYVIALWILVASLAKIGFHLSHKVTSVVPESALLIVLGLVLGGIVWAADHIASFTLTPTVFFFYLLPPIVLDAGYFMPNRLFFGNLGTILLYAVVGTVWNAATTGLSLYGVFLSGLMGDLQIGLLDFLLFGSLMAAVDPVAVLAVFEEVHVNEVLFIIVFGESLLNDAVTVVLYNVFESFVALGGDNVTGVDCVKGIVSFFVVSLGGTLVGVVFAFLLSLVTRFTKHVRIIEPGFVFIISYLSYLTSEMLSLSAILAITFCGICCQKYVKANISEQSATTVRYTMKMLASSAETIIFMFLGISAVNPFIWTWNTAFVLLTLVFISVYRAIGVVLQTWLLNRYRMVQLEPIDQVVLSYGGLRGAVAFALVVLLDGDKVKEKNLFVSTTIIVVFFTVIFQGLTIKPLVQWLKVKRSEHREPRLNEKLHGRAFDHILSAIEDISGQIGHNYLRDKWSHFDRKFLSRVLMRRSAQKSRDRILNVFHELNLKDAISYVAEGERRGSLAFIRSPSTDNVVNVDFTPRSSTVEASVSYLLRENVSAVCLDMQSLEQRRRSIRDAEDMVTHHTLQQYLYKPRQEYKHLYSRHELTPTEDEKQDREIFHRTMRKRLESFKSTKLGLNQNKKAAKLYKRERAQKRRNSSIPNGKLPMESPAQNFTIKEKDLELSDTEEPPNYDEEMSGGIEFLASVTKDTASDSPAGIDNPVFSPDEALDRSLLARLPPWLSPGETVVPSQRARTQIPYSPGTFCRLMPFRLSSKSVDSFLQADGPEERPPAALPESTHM
Summary of the method: as §1

Human NHE3 [2] = target: T2, Human NHE3; experiment: Cell-based NHE3 activity under persistent conditions (60 min incubation, washout), human NHE3; conditions: Table E5; dihydrochloride salt
[3] = system: absorption of sodium from the intestinal lumen; experiment: Inhibition of intestinal sodium absorption: urinary sodium (uNa) 16 h after single oral dose in rats; type: in vivo, rat; conditions: for UNa (%): urinary Na excretion as % of vehicle
Summary of the method: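 Eight-week-old Sprague-Dawley rats (n=6) given single oral gavage of compound or water vehicle in the late afternoon, then kept in metabolic cages with chow and water ad libitum. Urine collected over 16 h; sodium quantified by ion chromatography and expressed as % of vehicle mean, compared by one-way ANOVA with Dunnett's test.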

[4] = system: absorption of sodium from the intestinal lumen; experiment: Fecal form score (FFS) 16 h after oral dose in rats; type: in vivo, rat; conditions: in words
Summary of the method: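 Eight-week-old Sprague-Dawley rats (n=6) dosed by oral gavage with compound or water vehicle between 4 and 5 PM, then housed in metabolic cages with food and water ad libitum. At 16 h, fecal form scored 1 (normal pellet) to 5 (liquid streams) by two observers; group mean reported.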

[5] = system: intestinal phosphate uptake; experiment: Pharmacodynamic study with 33P oral challenge in normal function rats; type: in vivo, rat; conditions: 10 mg/kg; for Pi uptake after 33P oral challenge: 8 mM Pi with 33P, dihydrochloride salts, FIG. 1A
Description: The compounds identified as Cpds 003, 004, and 005 (from Table E4, as their dihydrochloride salts) were tested for the ability to block intestinal phosphate uptake in rats. Rats were orally challenged with dosing solutions composed of 5 ml/kg (˜1.3 ml) of 8 mM Pi with ^33P and +/−10 mg/kg of test compound. Also included were dosing solutions further composed of either (i) 75 mM glucose+4 mM Ca or (ii) 4 mM Ca.

NHE-2 = target: T3, NHE-2 (Rattus norvegicus, UniProt P48763); conditions: * = from rat; read-out: IC50 or Ki NHE-2; cited from earlier work
T3 sequence (P48763 1-813): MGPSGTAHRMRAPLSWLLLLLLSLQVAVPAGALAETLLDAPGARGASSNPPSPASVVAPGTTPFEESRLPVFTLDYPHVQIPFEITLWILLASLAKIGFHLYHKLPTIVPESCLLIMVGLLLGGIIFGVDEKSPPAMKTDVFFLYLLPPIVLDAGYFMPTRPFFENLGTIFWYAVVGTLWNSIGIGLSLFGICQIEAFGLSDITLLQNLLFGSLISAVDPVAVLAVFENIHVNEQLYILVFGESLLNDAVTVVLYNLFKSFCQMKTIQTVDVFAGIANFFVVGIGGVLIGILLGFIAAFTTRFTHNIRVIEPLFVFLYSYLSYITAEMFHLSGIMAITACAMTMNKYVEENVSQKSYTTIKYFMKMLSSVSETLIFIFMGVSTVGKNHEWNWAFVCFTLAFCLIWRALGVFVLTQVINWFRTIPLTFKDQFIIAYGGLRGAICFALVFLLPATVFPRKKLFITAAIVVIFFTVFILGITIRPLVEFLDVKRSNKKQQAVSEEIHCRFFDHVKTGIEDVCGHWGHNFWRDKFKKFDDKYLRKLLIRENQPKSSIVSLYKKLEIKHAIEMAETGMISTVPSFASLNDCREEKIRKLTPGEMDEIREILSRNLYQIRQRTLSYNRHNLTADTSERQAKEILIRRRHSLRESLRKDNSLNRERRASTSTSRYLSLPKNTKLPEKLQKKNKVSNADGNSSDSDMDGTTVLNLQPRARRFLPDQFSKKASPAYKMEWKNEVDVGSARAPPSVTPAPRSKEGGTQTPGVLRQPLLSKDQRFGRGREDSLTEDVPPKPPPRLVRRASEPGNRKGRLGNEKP

T1 sequence (P26433 29-831): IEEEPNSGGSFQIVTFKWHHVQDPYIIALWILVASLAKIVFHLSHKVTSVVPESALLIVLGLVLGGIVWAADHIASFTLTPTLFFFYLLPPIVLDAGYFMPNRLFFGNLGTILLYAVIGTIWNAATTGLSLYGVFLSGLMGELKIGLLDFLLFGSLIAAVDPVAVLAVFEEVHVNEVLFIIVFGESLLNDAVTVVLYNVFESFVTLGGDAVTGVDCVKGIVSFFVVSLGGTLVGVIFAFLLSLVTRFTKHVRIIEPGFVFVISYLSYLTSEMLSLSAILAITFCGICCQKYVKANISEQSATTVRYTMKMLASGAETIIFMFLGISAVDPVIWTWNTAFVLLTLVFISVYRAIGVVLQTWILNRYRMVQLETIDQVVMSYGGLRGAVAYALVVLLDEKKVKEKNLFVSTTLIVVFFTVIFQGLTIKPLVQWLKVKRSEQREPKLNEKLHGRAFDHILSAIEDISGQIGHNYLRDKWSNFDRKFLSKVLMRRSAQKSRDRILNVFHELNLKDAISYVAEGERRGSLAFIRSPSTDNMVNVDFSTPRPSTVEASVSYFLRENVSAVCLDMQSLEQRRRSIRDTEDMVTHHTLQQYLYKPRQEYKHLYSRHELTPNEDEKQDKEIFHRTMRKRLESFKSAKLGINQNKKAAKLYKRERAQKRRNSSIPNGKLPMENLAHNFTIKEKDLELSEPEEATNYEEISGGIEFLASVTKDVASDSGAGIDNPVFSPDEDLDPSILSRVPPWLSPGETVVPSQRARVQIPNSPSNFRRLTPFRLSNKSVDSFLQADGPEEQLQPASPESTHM
Chain of NHE-1 (P19634 whole entry, species assumed, canonical isoform): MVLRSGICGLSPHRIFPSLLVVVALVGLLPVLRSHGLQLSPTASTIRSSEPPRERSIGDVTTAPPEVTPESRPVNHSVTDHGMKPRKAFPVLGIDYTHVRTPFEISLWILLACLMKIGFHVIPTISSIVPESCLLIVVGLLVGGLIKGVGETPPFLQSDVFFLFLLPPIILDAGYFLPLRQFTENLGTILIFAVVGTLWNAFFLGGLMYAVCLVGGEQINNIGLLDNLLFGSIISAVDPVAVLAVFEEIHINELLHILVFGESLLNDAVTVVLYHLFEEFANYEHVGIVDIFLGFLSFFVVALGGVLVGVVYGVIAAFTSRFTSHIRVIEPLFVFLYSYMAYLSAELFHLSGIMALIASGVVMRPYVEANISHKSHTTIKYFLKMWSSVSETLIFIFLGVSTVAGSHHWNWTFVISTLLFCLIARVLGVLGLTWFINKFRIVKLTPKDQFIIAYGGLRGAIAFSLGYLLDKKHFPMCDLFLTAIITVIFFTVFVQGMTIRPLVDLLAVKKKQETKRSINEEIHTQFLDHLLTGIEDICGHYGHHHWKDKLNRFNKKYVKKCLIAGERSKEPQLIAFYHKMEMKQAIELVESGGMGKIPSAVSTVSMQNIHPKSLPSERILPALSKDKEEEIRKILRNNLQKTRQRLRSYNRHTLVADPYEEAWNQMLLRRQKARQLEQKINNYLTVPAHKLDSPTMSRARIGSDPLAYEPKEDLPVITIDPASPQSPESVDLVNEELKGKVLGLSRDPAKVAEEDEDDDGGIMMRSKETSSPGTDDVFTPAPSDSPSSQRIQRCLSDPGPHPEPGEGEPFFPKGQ

## C/C(=C\c1cc(C)ccc1/C=C(\C)C(=O)NC(=N)N)C(=O)N=C(N)N [S-3226]
NHE-1
  selectivity: more active against NHE-1 than NHE3: selectivity is reversed

## CN1Cc2c(Cl)cc(Cl)cc2[C@H](c2cccc(S(=O)(=O)NCCOCCOCCNC(=O)Nc3ccc(NC(=O)NCCOCCOCCNS(=O)(=O)c4cccc([C@@H]5CN(C)Cc6c(Cl)cc(Cl)cc65)c4)cc3)c2)C1 [Cpd 003]
Rat NHE3
  Rat NHE3 pIC50 Prompt: 8.6
Human NHE3 [1]; Table E5, 001 free base, 002-005 dihydrochloride salt
  Human NHE3 pIC50 Prompt: 8
Human NHE3 [1]
  pIC50 Prompt: 8
Human NHE3 [2]
  Human NHE3 pIC50 Persistent: 8.1
[3]; in words
  effect on urinary Na (UNa): significant reduction in UNa
[3]; single oral dose 1 mg/kg
  UNa (%): 22 @ 1 mg/kg %
[4]
  effect on fecal form: change in fecal form
[5]
  Pi uptake after 33P oral challenge: reducing Pi uptake
[5]; 4 mM Ca, FIG. 1C
  Pi uptake after 33P oral challenge in the presence of Ca: significantly reduced Pi uptake
[5]; 75 mM glucose + 4 mM Ca, FIG. 1B
  Pi uptake after 33P oral challenge in the presence of glucose/Ca: significantly reduced Pi uptake

## C/C(=C\c1cccc(/C=C(\C)C(=O)NC(=N)N)c1)C(=O)N=C(N)N [S-2120]
NHE-1
  selectivity: more active against NHE-1 than NHE3: over 500 fold

## CCN(c1nc(N)c(C(=O)NC(=N)N)nc1Cl)C(C)C [EIPA, ethyl isopropyl amiloride]
NHE-2
  IC50: 80 nM

## CN1Cc2c(Cl)cc(Cl)cc2[C@@H](c2cccc(S(=O)(=O)NCCOCCOCCNC(=O)NCCCCNC(=O)NCCOCCOCCNS(=O)(=O)c3cccc([C@@H]4CN(C)Cc5c(Cl)cc(Cl)cc54)c3)c2)C1 [Cpd 005]
Rat NHE3
  Rat NHE3 pIC50 Prompt: <5.0
Human NHE3 [1]; Table E5, 001 free base, 002-005 dihydrochloride salt, read-out: Human NHE3 pIC50 Prompt (converted)
  IC50: > 10000 nM
Human NHE3 [1]
  pIC50 Prompt: <5.0
[3]; single oral dose 10 mg/kg
  UNa (%): 90 @ 10 mg/kg %
[5]
  Pi uptake after 33P oral challenge: inactive
